Data on 35 compounds can be found in US12226484B2, “Compositions having improved bioavailability of therapeutics” (TRx Biosciences Limited, priority 2021, dated 2025).

The conditions of data set [1]: cited from earlier work.
For data set [2] the following is noted: Biopharmaceutics Classification System class; cited from earlier work.
Data set [3] is described as follows: Incorporation of therapeutic compound into glycerolipid formulations with digestion enhancers (visual; cooling and remelting). To be noted: for behaviour on stepwise hard fat addition (visual): then GELUCIRE 43/01 up to 1,000 mg.
Data set [4] is described as follows: Solubility of therapeutic compound in heated lipids in the absence of cholic acid (visual). The note with it: 60° C., stirred at least 60 minutes; only MAISINE CC and MAISINE CC/GELUCIRE 43/01 in ratios of 2:1 to 1:2. The method, then: ® 43/01, was then added in a stepwise fashion of 6 g to this lipid mixture until the total amount reached 24 g. […]
Data set [5] in a line: Formulating procedure: dissolution and stable incorporation in glycerolipid admixture/matrix. The data set is classed as physicochemical. The note with it: as shown in Example 3.
Protocol: As a first step, it is first determined whether a selected therapeutic compound can be formulated using 1) glycerolipids including at least one liquid fat (glycerolipid that is liquid at 18° C.) and at least one hard fat (glycerolipid that is solid at 18° C.) and 2) one or more digestion enhancers. In some embodiments, the one or more liquid and hard fats are first heated and the one or more digestion enhancers are solubilized in the glycerolipid admixture. Upon completion of solubility of the digestion enhancers, and if appropriate, the temperature of the admixture can be adjusted and a selected therapeutic compound is then dissolved in this heated admixture to incorporate the compound. […] In some embodiments, the one or more liquid fats are first heated and the one or more digestion enhancers are solubilized in the liquid fats. […] The initial heating step in all procedures is performed at a temperature sufficient to dissolve the one or more digestion enhancers and selected therapeutic compound and can be empirically determined based on the melting point of the selected components. […] Any subsequent adjustment to the heat when one or more liquid fats and/or one or more hart fats are being added to the admixture is performed at a temperature sufficient to melt the hard fats and can be empirically determined based on the melting point of the hard fat used in the formulation. […]
For data set [6] the following is noted: previous studies; cited from earlier work.
A short description of data set [7]: Oleic acid miscibility / self-emulsification in dissolution media modelling ICH dissolution testing. The data set is classed as physicochemical. The note with it: 1 g (100% or 75%) in one liter PBS with […] curcumin, 37° C., 300 rpm 10 minutes, then 10 minutes without stirring. The procedure:
To assess whether oleic acid could self-emulsify at the concentrations used in the disclosed pharmaceutical compositions, experiments was performed that were designed to model dissolution testing according to International Council for Harmonisation (ICH) guidelines. […] Miscibility experiments were performed using two concentrations of oleic acid nominally above the CMC concentration for this fatty acid. In one series of experiments, 1 g of 100% oleic acid was added to the dissolution media. The control compound was 1 g of 100% MAISINE™ CC. In a second series of experiments 1 g of 75% oleic acid (diluted with 250 mg of MAISINE™ CC) was added to the dissolution media. The control compound was 1 g of 75% MAISINE™ CC. The miscibility of oleic acid and MAISINE™ CC was assessed by observing the dissolution media for 10 minutes with constant stirring and then 10 minutes without stirring. Photographs were taken at time 0, 1, 2, 3, 4, 5 and 10 minutes during the stirring phase and 2, 4 and 10 minutes after stirring ceased.
Both oleic acid preparations quickly distributed throughout the PBS in small but clearly defined lipid droplets which were still observable after 10 minutes of stirring. On cessation of stirring, the lipid droplets either adhered to the stirrer or floated to the top of the PBS, with the bulk of the PBS clearing. […]

The conditions of data set [8]: reported value; cited from earlier work.

Molecules are shown by their SMILES. Where only a bound is given, the exact number is not on record here.

Regarding `C[C@]12CC[C@H](O)CC1=CC[C@@H]1[C@@H]2CC[C@]2(C)C(c3cccnc3)=CC[C@@H]12` [Abiraterone], the “Log P” value in data set [1] is on record as more than 1.
For the compound `CN(C)CCC=C1c2ccccc2CCc2ccccc21` [Amitriptyline], the “Log P” value in data set [1] is given as more than 1. Further, in data set [2], the BCS entry is “I”.
Take `CC(C)c1ccc2oc3nc(N)c(C(=O)O)cc3c(=O)c2c1` [Amlexanox]: in data set [1], the “Log P” value is reported as more than 1.
On to `C[C@@H](O[C@H]1OCCN(Cc2n[nH]c(=O)[nH]2)[C@H]1c1ccc(F)cc1)c1cc(C(F)(F)F)cc(C(F)(F)F)c1` [Aprepitant], for which the “Log P” value in data set [1] is more than 1. For the same compound, the “incorporation into heated glycerolipid mixture (visual)” value in data set [3] (50 mg with 40 mg cholic acid added to 500 mg MAISINE CC and 1,000 mg GELUCIRE 43/01 together, about 120° C. to about 160° C.) is reported as “failed to incorporate”. Further, the “behaviour on stepwise hard fat addition (visual)” value in data set [3] (50 mg with 40 mg cholic acid in 500 mg MAISINE CC, about 120° C. to about 160-170° C.) is reported as “remained in solution”; in data set [3] (60 mg dissolved in 500 mg MAISINE CC without cholic acid, about 120° C. to about 160° C.), “precipitate”.
As to `CC(=O)OC[C@H]1O[C@@H]([S-])[C@H](OC(C)=O)[C@@H](OC(C)=O)[C@@H]1OC(C)=O.CCP(CC)CC.[Au+]` [Auranofin], the “solubility in heated lipid in the absence of cholic acid (visual)” value in data set [4] is reported as “remained insoluble”.
`CC(C)(C)c1cc(NC(=O)Nc2ccc(Oc3ccnc4[nH]c(=O)cnc34)cc2F)n(-c2cccc(F)c2)n1` [CCT3833]: the “Log P” value in data set [1] is on record as more than 1.
As to `COc1cc(/C=C/C(=O)CC(=O)/C=C/c2ccc(O)c(OC)c2)ccc1O` [Curcumin], the “Log P” value in data set [1] was more than 1. Further, the “solubility using a formulation disclosed herein” value in data set [5] is on record as “soluble”.
Turning to `CCCCCCCC(=O)N[C@H](CN1CCCC1)[C@H](O)c1ccc2c(c1)OCCO2` [Eliglustat], the “Log P” value in data set [1] is more than 1. For the same compound, the BCS result in data set [2] is listed as “I or III”.
Regarding `CC(C)OC(=O)C(C)(C)Oc1ccc(C(=O)c2ccc(Cl)cc2)cc1` [Fenofibrate], in data set [1], the “Log P” value was more than 1.
As for `Cc1ccc(C)c(OCCCC(C)(C)C(=O)O)c1` [Gemfibrozil], the “Log P” value in data set [1] is recorded as more than 1.
For `COC(=O)Nc1nc2ccc(C(=O)c3ccccc3)cc2[nH]1` [Mebendazole], the “Log P” value in data set [1] is more than 1.
For the compound `CN(C)C(=N)N=C(N)N` [Metformin], the BCS entry in data set [2] is “I”.
With `CO[C@@H]1[C@H](N(C)C(=O)c2ccccc2)C[C@H]2O[C@]1(C)n1c3ccccc3c3c4c(c5c6ccccc6n2c5c31)C(=O)NC4` [Midostaurin], the “Log P” value in data set [1] is more than 1.
As to `O=C(O)c1cccnc1` [Niacin], in data set [1], the lipophilicity (Log P) is less than 1. In addition, the BCS entry in data set [2] is on record as “I”.
Consider `COC(=O)c1ccc2c(c1)NC(=O)/C2=C(\Nc1ccc(N(C)C(=O)CN2CCN(C)CC2)cc1)c1ccccc1` [Nintedanib], for which the “Log P” value in data set [1] was more than 1. In addition, the BCS result in data set [2] is on record as “II or IV”.
For `CO[C@@H]1[C@@H](OC(N)=O)[C@@H](O)[C@H](Oc2ccc3c(O)c(NC(=O)c4ccc(O)c(CC=C(C)C)c4)c(=O)oc3c2C)OC1(C)C` [Novobiocin], in data set [1], the “Log P” value is more than 1.
On to `O=C(c1cc(Cc2n[nH]c(=O)c3ccccc23)ccc1F)N1CCN(C(=O)C2CC2)CC1` [Olaparib], for which the log partition coefficient (Log P) in data set [1] is listed as more than 1. In data set [3] (MAISINE CC, fatty acid component, cholic acid and GELUCIRE 43/01, 130° C., cooled, remelted at 50° C.), the “appearance on remelting of the solid composition (visual)” value is “no precipitate formation”. In addition, the “behaviour on cooling and solidification (visual)” value in data set [3] (MAISINE CC, oleic acid and GELUCIRE 43/01 without cholic acid, 130° C., cooled to room temperature) is recorded as “precipitated out of solution”.
On to `COc1ccc2[nH]c([S+]([O-])Cc3ncc(C)c(OC)c3C)nc2c1` (centres unmarked) [Omeprazole], for which, in data set [1], the “Log P” value is listed as more than 1.
Take `Cc1ccc(=O)n(-c2ccccc2)c1` [Pirfenidone]: the “Log P” value in data set [1] was more than 1. The BCS entry in data set [2] is listed as “I”.
`Clc1ccc(CCCOCCCN2CCCCC2)cc1` [Pitolisant]: the “Log P” value in data set [1] is more than 1. Also, the BCS result in data set [2] is “I”.
For `O=C(C1CCCCC1)N1CC(=O)N2CCc3ccccc3C2C1` (centres unmarked) [Praziquantel], in data set [1], the lipophilicity (Log P) was more than 1.
For the compound `CC(=O)[C@H]1CC[C@H]2[C@@H]3CCC4=CC(=O)CC[C@]4(C)[C@H]3CC[C@]12C` [Progesterone], in data set [1], the “Log P” value was more than 1.
As for `CC(C)NCC(O)COc1cccc2ccccc12` (centres unmarked) [Propranolol], the BCS entry in data set [2] is on record as “I”.
With `O=C(c1ccc(OCCN2CCCCC2)cc1)c1c(-c2ccc(O)cc2)sc2cc(O)ccc12` [Raloxifene], in data set [1], the “Log P” value is on record as more than 1.
With `O=C(NC(Cc1cc(=O)[nH]c2ccccc12)C(=O)O)c1ccc(Cl)cc1` (centres unmarked) [Rebamipide], the “Log P” value in data set [1] is listed as more than 1.
Take `CC1=C(/C=C/C(C)=C/C=C/C(C)=C/C(=O)O)C(C)(C)CCC1` [Retinoic acid]: the “Log P” value in data set [1] is more than 1.
Consider `C[C@H](O)[C@H](O)[C@H]1CNc2nc(N)[nH]c(=O)c2N1` [Sapropterin], for which the “Log P” value in data set [1] is given as less than 1. The BCS entry in data set [2] was “I”.
For `NCCc1c[nH]c2ccc(O)cc12` [Serotonin], the “Log P” value in data set [1] is less than 1.
On to `N[C@@H](Cc1c[nH]c2ccccc12)C(=O)O` [Tryptophan], for which the “Log P” value in data set [1] is less than 1.
Consider `C=C(C)[C@@H]1CCC(C)=C[C@H]1c1c(O)cc(CCCCC)cc1O` [cannabidiol], for which the “solubility in a glycerolipid admixture of MAISINE CC and GELUCIRE 43/01” value in data set [6] is given as “soluble”.
As to `COc1ccc2cc([C@H](C)C(=O)O)ccc2c1` [naproxen sodium], in data set [3] (393 mg alone added to 500 mg MAISINE CC and 1,000 mg GELUCIRE 43/01, about 130° C.), the “incorporation into heated glycerolipid mixture (visual)” value is given as “failed to incorporate”.
Regarding `COC(=O)c1ccc2c(c1)NC(=O)/C2=C(\Nc1ccc(N(C)C(=O)CN2CCN(C)CC2)cc1)c1ccccc1` [nintedanib esylate], the “incorporation into heated glycerolipid mixture (visual)” value in data set [3] (40 mg in 1.0 g MAISINE CC with 1.5 g oleic acid and 100 or 150 mg sodium oleate or sodium stearate, about 130° C., no cholic acid or lecithin) was “failed to incorporate”; in data set [3] (40 mg in 1.0 g MAISINE CC with 1.5 g oleic acid, sodium oleate or sodium stearate, and 30 mg of cholic acid or 30 mg lecithin, about 130° C.), “became soluble”.
Turning to `CCCCCCCC/C=C\CCCCCCCC(=O)O` [oleic acid], the “miscibility in the dissolution media” value in data set [7] is listed as “not miscible”. Further, the “critical micellar concentration (CMC)” value in data set [8] is given as 2.3 mM.
With `Clc1ccc(CCCOCCCN2CCCCC2)cc1` [pitolosant], the “solubility in heated lipid in the absence of cholic acid (visual)” value in data set [4] is listed as “remained insoluble”.
`CCCCCCCCCCCCCCCCCC(=O)[O-].[Na+]` [sodium stearate]: the “critical micellar concentration (CMC)” value in data set [8] is 0.071 mM.
